From article PMC6071731 (2018)

Tests used:
[1] = system: 22AG (DNA, G4) AGGGTTAGGGTTAGGGTTAGGG; assay: fluorimetric titration; conditions: 95 mM K+; potassium phosphate buffer, 5% DMSO, pH 7.0; ligand 20 μM; DNA concentration in oligonucleotide
[2] = system: 22AG (DNA, G4) AGGGTTAGGGTTAGGGTTAGGG; assay: photometric titration; conditions: 95 mM K+; potassium phosphate buffer, 5% DMSO, pH 7.0; ligand 20 μM; DNA concentration in oligonucleotide

Kb [1]	Kb [2]	SMILES
220000 M⁻¹	–	C(#Cc1ccc2c[n+]3ccccc3cc2c1)c1ccccc1
–	16000 M⁻¹	CN(C)c1ccc(C#Cc2ccc3c[n+]4ccccc4cc3c2)cc1
30000 M⁻¹	–	C(#Cc1cc2ccccc2c2ccccc12)c1ccc2c[n+]3ccccc3cc2c1
–	26000 M⁻¹	COc1ccc(C#Cc2ccc3c[n+]4ccccc4cc3c2)cc1
